The values below come from US20260347338A1, “PYRIMIDINE/PYRIDINE DERIVATIVES OR SALTS THEREOF AND PHARMACEUTICAL COMPOSITIONS COMPRISING THE SAME” (YUHAN CORPORATION, priority 2023, published 2026).

This test deals with T1, human recombinant HPK1 (Homo sapiens, UniProt Q92918).
T1 construct: purchased BPS Bioscience
T1 sequence (Q92918 whole entry): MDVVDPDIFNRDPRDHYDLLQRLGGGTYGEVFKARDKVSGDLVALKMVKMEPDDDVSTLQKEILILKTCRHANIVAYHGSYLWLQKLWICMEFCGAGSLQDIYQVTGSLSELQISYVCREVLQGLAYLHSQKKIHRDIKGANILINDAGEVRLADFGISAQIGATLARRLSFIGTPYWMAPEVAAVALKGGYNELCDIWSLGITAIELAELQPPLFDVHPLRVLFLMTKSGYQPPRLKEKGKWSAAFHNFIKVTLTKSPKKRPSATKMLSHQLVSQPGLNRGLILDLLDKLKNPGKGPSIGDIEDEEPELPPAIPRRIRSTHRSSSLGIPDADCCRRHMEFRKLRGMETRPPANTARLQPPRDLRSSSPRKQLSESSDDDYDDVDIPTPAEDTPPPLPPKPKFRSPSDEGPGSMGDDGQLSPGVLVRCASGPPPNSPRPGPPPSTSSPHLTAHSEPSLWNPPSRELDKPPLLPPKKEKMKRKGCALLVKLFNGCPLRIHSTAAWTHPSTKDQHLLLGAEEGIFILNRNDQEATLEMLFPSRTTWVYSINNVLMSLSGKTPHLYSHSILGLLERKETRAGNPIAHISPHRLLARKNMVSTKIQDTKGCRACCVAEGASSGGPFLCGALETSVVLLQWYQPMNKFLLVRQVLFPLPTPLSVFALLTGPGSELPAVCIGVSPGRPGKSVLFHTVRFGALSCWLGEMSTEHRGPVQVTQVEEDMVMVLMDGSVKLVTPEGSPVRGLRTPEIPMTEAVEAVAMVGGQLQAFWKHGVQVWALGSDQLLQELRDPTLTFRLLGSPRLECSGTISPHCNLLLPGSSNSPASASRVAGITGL
Briefly: Inhibitory activity against human recombinant HPK1 (TR-FRET). The conditions noted are these: ULight-p70S6K peptide, ATP at Km, room temperature, 1 hour, 0.32 to 1000 nM compound. In kind it is biochemical. On the procedure: Test Example: Evaluation of Inhibitory Activity Against Human Recombinant HPK1
The inhibitory activity against human recombinant HPK1 was evaluated using the Time-Resolved Fluorescence Resonance Energy Transfer (TR-FRET) technology of Perkin-Elmer. The test compound was prepared as a 20 mM stock solution with dimethyl sulfoxide (DMSO), serially diluted in a buffer solution, and used at final compound concentrations of 0.32 to 1000 nM. The evaluation of inhibitory activity was carried out at room temperature, using recombinant human HPK1 (BPS Bioscience). Briefly, recombinant human HPK1, serially diluted each test compound, ULight-p70S6K peptide substrate (PerkinElmer), and ATP at each concentration (Km and final concentration) were added to a kinase buffer solution (50 mM HEPES pH 7.4, 10 mM MgCl2, 1 mM EGTA, 3 mM MnCl2, 2 mM DTT, and 0.01% Tween-20). The resulting mixture was added to each well of a 384-well plate (Optiplate™ 384, white, PerkinElmer). The enzyme reaction was carried out at room temperature for 1 hour. After the reaction was suspended by adding 4 μL of a stop solution (10 mM EDTA) thereto, the mixture was stirred for 1 minute and then a detection solution containing Europium-labeled anti-phosphopeptide antibody (final concentration: 2 nM, PerkinElmer) was added thereto. The signals of TR-FRET at excitation wavelength (320 nm) and emission wavelength (665 nm) were detected using a microplate reader (Envision Multilabel Reader, Perkin-Elmer). Inhibition by the test compound was measured as % inhibition in the signals, compared to the control group treated with DMSO only. The IC50 value of each compound was calculated using the GraphPad Prism program (GraphPad Software, Inc., San Diego, CA, USA). The IC50 values of test compounds for inhibitory activity against HPK1 were classified as follows: • A: IC50≤10 nM • B: 10 nM<IC50≤50 nM • C: 50 nM<IC50≤100 nM • D: IC50>100 nM
In general terms: TR-FRET usually uses a lanthanide donor and a delayed reading to cut background.
The IC50 is the concentration needed to halve the response being measured. Regarding “2-(2-fluoro-6-methoxyphenyl)-6-((4-((S)-3-hydroxypiperidin-1-yl)-5-(1-(1-methylpiperidin-4-yl)-1H-pyrazol-4-yl)pyrimidin-2-yl)amino)nicotinonitrile [Example 63]”, the concentration for half-maximal inhibition (IC50) fell in the range of 50 to 100 nM.

“2-(2-fluoro-6-methoxyphenyl)-N-(4-(2-methyl-2,8-diazaspiro[4.5]decan-8-yl)-5-(1-(2,2,2-trifluoroethyl)-1H-pyrazol-4-yl)pyridin-2-yl)pyrimidin-4-amine [Example 136]”: the IC50 was not above 10 nM.

Regarding “6-((6-(2-fluoro-6-methoxyphenyl)-5-nitropyridin-2-yl)amino)-N-((1R,3S)-3-hydroxycyclopentyl)-4-((S)-3-hydroxypiperidin-1-yl)nicotinamide [Example 195]”, the IC50 was not above 10 nM.

On to `Cc1cncc(-c2nccc(Nc3cc(N4CCC[C@H](O)C4)c(C(=O)C4CC4)cn3)n2)c1` [Example 1, (S)-cyclopropyl(4-(3-hydroxypiperidin-1-yl)-6-((2-(5-methylpyridin-3-yl)pyrimidin-4-yl)amino)pyridin-3-yl)methanone], for which the IC50 is 10 to 50 nM.

As for `Nc1cncc(-c2nccc(Nc3cc(N4CCC[C@H](O)C4)c(C(=O)C4CC4)cn3)n2)c1` [Example 2, (S)-(6-((2-(5-aminopyridin-3-yl)pyrimidin-4-yl)amino)-4-(3-hydroxypiperidin-1-yl)pyridin-3-yl)(cyclopropyl)methanone], the IC50 lay in the range of 10 to 50 nM.

With `COc1cncc(-c2nccc(Nc3cc(N4CCC[C@H](O)C4)c(C(=O)C4CC4)cn3)n2)c1` [Example 3, (S)-cyclopropyl(4-(3-hydroxypiperidin-1-yl)-6-((2-(5-methoxypyridin-3-yl)pyrimidin-4-yl)amino)pyridin-3-yl)methanone], the half-inhibitory concentration (IC50) lay in the range of 50 to 100 nM.

Take `O=C(c1cnc(Nc2ccnc(-c3cccc(O)c3)n2)cc1N1CCC[C@H](O)C1)C1CC1` [Example 4, (S)-cyclopropyl(6-((2-(3-hydroxyphenyl)pyrimidin-4-yl)amino)-4-(3-hydroxypiperidin-1-yl)pyridin-3-yl)methanone]: the IC50 lay within 50 to 100 nM.

Consider `COc1cccc(F)c1-c1nccc(Nc2cc(N3CCC[C@H](O)C3)c(C(=O)C3CC3)cn2)n1` [Example 5, (S)-cyclopropyl(6-((2-(2-fluoro-6-methoxyphenyl)pyrimidin-4-yl)amino)-4-(3-hydroxypiperidin-1-yl)pyridin-3-yl)methanone], for which the IC50 lay in the range of 10 to 50 nM.

Regarding `COc1cccc(F)c1-c1nccc(Nc2cc(N3CC(O)C3)c(C(=O)C3CC3)cn2)n1` [Example 6, cyclopropyl(6-((2-(2-fluoro-6-methoxyphenyl)pyrimidin-4-yl)amino)-4-(3-hydroxyazetidin-1-yl)pyridin-3-yl)methanone], the IC50 was in the range of 10 to 50 nM.

On to `COc1cccc(F)c1-c1nccc(Nc2cc(N3CCC[C@H](O)C3)c(-c3cnn(C4CCOCC4)c3)cn2)n1` [Example 7, (S)-1-(2-((2-(2-fluoro-6-methoxyphenyl)pyrimidin-4-yl)amino)-5-(1-(tetrahydro-2H-pyran-4-yl)-1H-pyrazol-4-yl)pyridin-4-yl)piperidin-3-ol], for which the IC50 is not above 10 nM.

For the molecule `COc1cccc(F)c1-c1nccc(Nc2cc(N3CCC[C@H](O)C3)c(C#Cc3cnn(C(F)(F)F)c3)cn2)n1` [Example 8, (S)-1-(2-((2-(2-fluoro-6-methoxyphenyl)pyrimidin-4-yl)amino)-5-((1-(trifluoromethyl)-1H-pyrazol-4-yl)ethynyl)pyridin-4-yl)piperidin-3-ol], the IC50 is 10 to 50 nM.

Regarding `COc1cccc(F)c1-c1nccc(Nc2cc(N3CCC[C@@H](O)C3)c(C#Cc3cnn(C(F)(F)F)c3)cn2)n1` [Example 9, (R)-1-(2-((2-(2-fluoro-6-methoxyphenyl)pyrimidin-4-yl)amino)-5-((1-(trifluoromethyl)-1H-pyrazol-4-yl)ethynyl)pyridin-4-yl)piperidin-3-ol], the IC50 was in the range of 10 to 50 nM.

In the case of `COc1cccc(F)c1-c1nccc(Nc2cc(N3CC(O)C3)c(C#CC3CCOCC3)cn2)n1` [Example 10, 1-(2-((2-(2-fluoro-6-methoxyphenyl)pyrimidin-4-yl)amino)-5-((tetrahydro-2H-pyran-4-yl)ethynyl)pyridin-4-yl)azetidin-3-ol], the IC50 was in the range of 10 to 50 nM.

For `COc1cccc(F)c1-c1nccc(Nc2cc(N3CCC[C@H](O)C3)c(C#CC3CCOCC3)cn2)n1` [Example 11, (S)-1-(2-((2-(2-fluoro-6-methoxyphenyl)pyrimidin-4-yl)amino)-5-((tetrahydro-2H-pyran-4-yl)ethynyl)pyridin-4-yl)piperidin-3-ol], the IC50 is not above 10 nM.

As to `COc1cccc(F)c1-c1nccc(Nc2cc(N3CCC[C@H](O)C3)c(-c3cnn(C)c3)cn2)n1` [Example 12, (S)-1-(2-((2-(2-fluoro-6-methoxyphenyl)pyrimidin-4-yl)amino)-5-(1-methyl-1H-pyrazol-4-yl)pyridin-4-yl)piperidin-3-ol], the IC50 is not above 10 nM.

As to `COc1cccc(F)c1-c1nccc(Nc2cc(N3CCC[C@H](O)C3)c(-c3cnn(C(C)C)c3)cn2)n1` [Example 13, (S)-1-(2-((2-(2-fluoro-6-methoxyphenyl)pyrimidin-4-yl)amino)-5-(1-isopropyl-1H-pyrazol-4-yl)pyridin-4-yl)piperidin-3-ol], the 50% inhibitory concentration (IC50) was not above 10 nM.

For the molecule `COc1cccc(F)c1-c1nccc(Nc2cc(N3CCC[C@H](O)C3)c(-c3cnn(C4CCOC4)c3)cn2)n1` (stereo partly drawn) [Example 14, (3S)-1-(2-((2-(2-fluoro-6-methoxyphenyl)pyrimidin-4-yl)amino)-5-(1-(tetrahydrofuran-3-yl)-1H-pyrazol-4-yl)pyridin-4-yl)piperidin-3-ol], the IC50 is not above 10 nM.

Take `COc1cccc(F)c1-c1nccc(Nc2cc(N3CCC[C@H](O)C3)c(-c3cnn(C4CCN(C)CC4)c3)cn2)n1` [Example 15, (S)-1-(2-((2-(2-fluoro-6-methoxyphenyl)pyrimidin-4-yl)amino)-5-(1-(1-methylpiperidin-4-yl)-1H-pyrazol-4-yl)pyridin-4-yl)piperidin-3-ol]: the 50% inhibitory concentration (IC50) was not above 10 nM.

`COc1cccc(F)c1-c1nccc(Nc2cc(N3CCC[C@H](O)C3)c(-c3cnn(CC(F)(F)F)c3)cn2)n1` [Example 16, (S)-1-(2-((2-(2-fluoro-6-methoxyphenyl)pyrimidin-4-yl)amino)-5-(1-(2,2,2-trifluoroethyl)-1H-pyrazol-4-yl)pyridin-4-yl)piperidin-3-ol]: the IC50 is not above 10 nM.

With `COc1cccc(F)c1-c1nccc(Nc2cc(N3CCC[C@H](O)C3)c(-c3cnn(CC4CC4)c3)cn2)n1` [Example 17, (S)-1-(5-(1-(cyclopropylmethyl)-1H-pyrazol-4-yl)-2-((2-(2-fluoro-6-methoxyphenyl)pyrimidin-4-yl)amino)pyridin-4-yl)piperidin-3-ol], the IC50 was not above 10 nM.

With `COc1cccc(F)c1-c1nccc(Nc2cc(N3CCC[C@H](O)C3)c(-c3ccc(C4CCOCC4)cc3)cn2)n1` [Example 18, (S)-1-(2-((2-(2-fluoro-6-methoxyphenyl)pyrimidin-4-yl)amino)-5-(4-(tetrahydro-2H-pyran-4-yl)phenyl)pyridin-4-yl)piperidin-3-ol], the IC50 is not above 10 nM.

In the case of `COc1cccc(F)c1-c1nccc(Nc2cc(N3CCC[C@H](O)C3)c(-c3ccc(N4CCN(C)CC4)cc3)cn2)n1` [Example 19, (S)-1-(2-((2-(2-fluoro-6-methoxyphenyl)pyrimidin-4-yl)amino)-5-(4-(4-methylpiperazin-1-yl)phenyl)pyridin-4-yl)piperidin-3-ol], the half-inhibitory concentration (IC50) is not above 10 nM.

Turning to `COc1cccc(F)c1-c1nccc(Nc2cc(N3CCC[C@H](O)C3)c(-c3ccc(N4CCOCC4)nc3)cn2)n1` [Example 20, (S)-1-(6-((2-(2-fluoro-6-methoxyphenyl)pyrimidin-4-yl)amino)-6′-morpholino-[3,3′-bipyridin]-4-yl)piperidin-3-ol], the IC50 is not above 10 nM.

Take `OCc1csc(-c2nccc(Nc3cc(N4CCC[C@H](O)C4)c(-c4cnn(C5CCOCC5)c4)cn3)n2)c1` [Example 21, (S)-1-(2-((2-(4-(hydroxymethyl)thiophen-2-yl)pyrimidin-4-yl)amino)-5-(1-(tetrahydro-2H-pyran-4-yl)-1H-pyrazol-4-yl)pyridin-4-yl)piperidin-3-ol]: the IC50 lay within 10 to 50 nM.

Consider `O[C@H]1CCCN(c2cc(Nc3ccnc(-c4c(F)cccc4F)n3)ncc2-c2cnn(C3CCOCC3)c2)C1` [Example 22, (S)-1-(2-((2-(2,6-difluorophenyl)pyrimidin-4-yl)amino)-5-(1-(tetrahydro-2H-pyran-4-yl)-1H-pyrazol-4-yl)pyridin-4-yl)piperidin-3-ol], for which the IC50 was not above 10 nM.

`COc1c(F)ccc(F)c1-c1nccc(Nc2cc(N3CCC[C@H](O)C3)c(-c3cnn(C4CCOCC4)c3)cn2)n1` [Example 23, (S)-1-(2-((2-(3,6-difluoro-2-methoxyphenyl)pyrimidin-4-yl)amino)-5-(1-(tetrahydro-2H-pyran-4-yl)-1H-pyrazol-4-yl)pyridin-4-yl)piperidin-3-ol]: the half-inhibitory concentration (IC50) was in the range of 10 to 50 nM.
